# Assay results published in patent US5002948A, “3-[4-[4-substituted-1-piperazinyl]-1-butyl]-1H-2,3-dihydroindoles” (H. Lundbeck A/S, priority 1988, dated 1991).
# Key:
# 5-HT1A [1] = molecular target: T1, 5-HT1A (Rattus norvegicus, UniProt P19327); assay: Antagonism of the discriminative stimulus properties induced by 8-OHDPAT in rats; type: in vivo, Male Wistar rats; parameters: from tissue; host or cells: whole living animal, male Wistar rats, s.c. dosing; conditions: s.c. before 8-OHDPAT, rats trained at 0.4 mg/kg i.p., inhibition of drug responding; for ED50: rat, sc, read-out: ED50, 8-OH DPAT cue antagonism; for ED50, 8-OH DPAT cue antagonism: 0.4 mg/kg
# T1 sequence (P19327 1-422): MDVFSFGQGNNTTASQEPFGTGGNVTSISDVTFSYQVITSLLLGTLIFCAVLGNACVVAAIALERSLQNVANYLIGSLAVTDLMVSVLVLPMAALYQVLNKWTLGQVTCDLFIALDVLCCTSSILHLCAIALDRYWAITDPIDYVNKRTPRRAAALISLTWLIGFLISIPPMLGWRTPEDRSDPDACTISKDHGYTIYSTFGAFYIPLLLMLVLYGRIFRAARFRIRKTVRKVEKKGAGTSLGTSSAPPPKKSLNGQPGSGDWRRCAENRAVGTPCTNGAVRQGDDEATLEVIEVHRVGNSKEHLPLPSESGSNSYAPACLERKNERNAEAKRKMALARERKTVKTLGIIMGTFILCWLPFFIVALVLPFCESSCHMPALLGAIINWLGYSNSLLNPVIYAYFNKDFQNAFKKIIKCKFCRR
# Description: ANTAGONISM OF THE DISCRIMINATIVE STIMULUS PROPERTIES INDUCED BY 8-OHDPAT IN RATS.
# This test model is used to determine the antagonist effects of a test compound on 5-HT1A receptors in vivo. A related method is described by Tricklebank, M. D., J. Neill, E. J. Kidd and J. R. Fozard, Eur. J. Pharmacol. 133, 47-56, 1987; Arnt. J., Pharmacology & Toxicology 64, 165-172, 1989.
# Male Wistar rats are trained to discriminate between 8-OHDPAT (0.4 mg/kg, i.p., 15 min. pretreatment) and physiological saline in operant chambers equipped with two response levers. Between the levers a dipper is placed, where water rewards (0.1 ml) are presented. The rats are water deprived for at least 24 h and work in a fixed ratio (FR) schedule (final FR=32).
# Following 8-OHDPAT administration responding is reinforced only on a designated (drug) lever, whereas responding on the opposite lever has no consequences. Following saline administration responding is reinforced on the lever opposite to the drug lever. Drug and saline trials alternate randomly between training days, although the same treatment is given maximally at 3 consecutive days. The level of discrimination occuracy is expressed as the per cent drug responses and is calculated as the number of correct responses×100 divided by the sum of the correct and incorrect responses before the first reward. When stable occuracy (mean correct responding=90 per cent; individual rats at least 75 per cent correct responding) is obtained test sessions are included between training days. Test compound is injected s.c. at appropriate time before 8-OHDPAT and the test begins 15 min after 8-OHDPAT injection. The test trial is terminated when a total of 32 responses are made on either lever or when 20 min have elapsed. No reward is given and the rats have free access to water for 20-30 min after the test. The effects are expressed as per cent inhibition of drug responding. Only results from rats making at least 10 responses on one lever are included in data analysis. Furthermore, only test sessions in which at least half of the rats respond are included.
# The per cent inhibition of drug response obtained for each dose of test compound is used to calculate ED50 values by log-probit analysis.
# 5-HT1A [2] = molecular target: T1, 5-HT1A; assay: Inhibition of 5-methoxy-N,N-dimethyltryptamine (5-MeODMT) induced 5-HT syndrome in rats; type: in vivo, Male Wistar rats; parameters: Male Wistar rats (Mol:Wist) weighing 170-240 g are used; from tissue; host or cells: whole living animal, male Wistar rats (Mol:Wist), s.c. dosing; conditions: 30 min before 5-MeODMT 5 mg/kg s.c., per cent inhibition of piano playing syndrome; for ED50: rat, sc
# Description: INHIBITION OF 5-METHOXY-N,N-[…] INDUCED 5-HT SYNDROME IN RATS
# The so-called 5-HT syndrome is a characteristic behaviour pattern which is induced by 5-HT agonists with effects on 5-HT, possibly 5-HT1A receptors, although lack of specific antagonists make it difficult to evaluate specificity (Smith, L. M. and S. J. Peroutka, Pharmacol. Biochem. & Behaviour 24, 1513-1519, 1986; Tricklebank, M. et al., Eur. J. Pharmacol. 117, 15-24, 1985).
# Male Wistar rats (Mol:Wist) weighing 170-240 g are used. Test substrate is injected subcutaneously 30 min. before 5-methoxy-N,N-dimethyltryptamine 5 mg/kg, s.c. Four rats are used for each dose. A control group pretreated with saline is included each test day. Ten, 15 and 20 min later the rats are observed for presence of serotonin (5-HT) syndrome: (1) forepaw treading ("piano playing"), (2) head weaving and (3) hindleg abduction. Further, flat motility is scored. Each part of the syndrome is scored as follows: marked effect (score 2), weak syndrome (score 1) and no effect (score 0). The scores of the three observation times are added. Thus the maximum obtainable score for four rats is 24. The effect of the test substance is expressed as per cent inhibition relative to the control group.
# The per cent inhibition of the piano playing syndrome is used as the response, and ED50 values are calculated by log-prohibit analysis.
SMILES,ED50 (5-HT1A [1]) [µmol/kg],ED50 (5-HT1A [2]) [µmol/kg],"ED50, 8-OH DPAT cue antagonism (5-HT1A [1]) [µmol/kg]","ED50, inhibition of 5-MeODMT induced 5-HT syndrome (5-HT1A [2]; s.c.) [µmol/kg]"
"CCOc1ccccc1N1CCN(CCCCC2CNc3ccccc32)CC1 (stereo not drawn) [Compound 3c, 3-[4-[4-(2-ethoxyphenyl)-1-piperazinyl]-1-butyl]-1H-2,3-dihydroindole]",4.8,0.48,–,–
"COc1ccccc1N1CCN(CCCCC2CNc3ccccc32)CC1 (single isomer, unassigned; (+)) [Compound 7a, (+)-3-[4-[4-(2-methoxyphenyl)-1-piperazinyl]-1-butyl]-1H-2,3-dihydroindole]",–,2.1,1.0,–
"COc1ccccc1N1CCN(CCCCC2CNc3ccccc32)CC1 (single isomer, unassigned; (-)) [Compound 7b, (-)-3-[4-[4-(2-methoxyphenyl)-1-piperazinyl]-1-butyl]-1H-2,3-dihydroindole]",–,–,> 3.4,1.3
"COc1ccccc1N1CCN(CCCCC2CNc3ccccc32)CC1 (stereo not drawn) [Compound 3a, 3-[4-[4-(2-methoxyphenyl)-1-piperazinyl]-1-butyl]-1H-2,3-dihydroindole]",7.2,1.9,–,–
"c1ccc2c(c1)NCC2CCCCN1CCN(c2cccc3c2OCCO3)CC1 (stereo not drawn) [Compound 3j, 3-[4-[4-(1,4-benzodioxan-5-yl)-1-piperazinyl]-1-butyl]-1H-2,3-dihydroindole]",8.8,3.1,–,–
"c1ccc2c(c1)NCC2CCCCN1CCN(c2cccc3c2OCC3)CC1 (stereo not drawn) [Compound 3i, 3-[4-[4-(2,3-dihydro-7-benzofuranyl)-1-piperazinyl]-1-butyl]-1H-2,3-dihydroindole]",> 9,4,–,–
